Data set [1] has as its target T1, hGLP1R (Homo sapiens, UniProt P43220).
T1 construct: expressed in transfected cells; host or cells: HEK-293 CRE-luciferase reporter cells
As to the kind of experiment: hGLP1R CreLuc assay in 0.5% and 100% plasma (HEK-293 CRE-luciferase reporter cells). Format: cell-based. Particulars: 0.5% human plasma, HEK-293 reporter cells, read-out: hGLP1R 0.5% hP. In general terms: Reporter assays use an easily measured gene product as a stand-in for the process of interest.

Data set [2] addresses T2, hGIPR (Homo sapiens, UniProt P48546).
T2 construct: expressed in transfected cells; host or cells: CHO CRE-luciferase reporter cells
T2 sequence (P48546 22-466): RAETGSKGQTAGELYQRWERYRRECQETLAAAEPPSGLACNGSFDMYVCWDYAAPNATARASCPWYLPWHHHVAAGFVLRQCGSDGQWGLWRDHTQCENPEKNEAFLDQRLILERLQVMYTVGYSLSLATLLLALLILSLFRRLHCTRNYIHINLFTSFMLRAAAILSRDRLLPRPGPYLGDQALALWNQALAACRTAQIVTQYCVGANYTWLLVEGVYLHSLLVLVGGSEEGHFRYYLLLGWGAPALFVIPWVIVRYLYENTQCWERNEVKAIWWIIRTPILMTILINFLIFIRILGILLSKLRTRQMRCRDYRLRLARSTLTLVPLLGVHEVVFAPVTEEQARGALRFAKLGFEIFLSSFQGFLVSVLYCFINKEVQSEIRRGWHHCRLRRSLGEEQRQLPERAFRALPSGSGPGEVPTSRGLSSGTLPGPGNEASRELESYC
As to the kind of experiment: hGIPR CreLuc assay in 0.5% and 100% plasma (CHO CRE-luciferase reporter cells). Format: cell-based. Particulars: 0.5% human plasma, read-out: hGIPR 0.5% hP.

Data set [3] can be described thus: Solubility in 0.1 M phosphate buffer at pH 7. Format: physicochemical. To be noted: 0.1 M phosphate buffer at pH 7, 10 mg/mL final peptide concentration, shaking 2 hours at room temperature, peptides as TFA-salts; measured sample pH 6.5-7.0.

T1 sequence (P43220 24-463): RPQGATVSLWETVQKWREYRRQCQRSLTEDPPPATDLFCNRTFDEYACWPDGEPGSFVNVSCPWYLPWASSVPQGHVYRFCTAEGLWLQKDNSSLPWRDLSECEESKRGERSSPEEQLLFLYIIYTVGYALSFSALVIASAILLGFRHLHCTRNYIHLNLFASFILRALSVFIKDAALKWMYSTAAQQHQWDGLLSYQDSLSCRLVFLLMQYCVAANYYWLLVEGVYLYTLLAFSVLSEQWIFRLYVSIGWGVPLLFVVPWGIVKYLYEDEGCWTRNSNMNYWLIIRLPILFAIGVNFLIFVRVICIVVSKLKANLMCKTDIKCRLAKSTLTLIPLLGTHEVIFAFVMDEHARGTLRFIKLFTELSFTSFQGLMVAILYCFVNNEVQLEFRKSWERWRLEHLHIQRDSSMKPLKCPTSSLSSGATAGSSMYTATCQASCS

In the case of `CC[C@H](C)[C@H](NC(=O)[C@H](CC(C)C)NC(=O)[C@H](Cc1c[nH]cn1)NC(=O)[C@H](CCCNC(=N)N)NC(=O)[C@@H](NC(=O)[C@H](Cc1ccccc1)NC(=O)[C@H](C)NC(=O)C(C)(C)NC(=O)[C@H](CCC(N)=O)NC(=O)[C@H](C)NC(=O)[C@H](CCC(N)=O)NC(=O)[C@H](CCCCN)NC(=O)[C@H](CCC(=O)O)NC(=O)[C@H](CC(C)C)NC(=O)C(C)(C)NC(=O)[C@@H](NC(=O)[C@H](CO)NC(=O)[C@H](Cc1ccc(O)cc1)NC(=O)[C@H](CC(=O)O)NC(=O)[C@H](CO)NC(=O)[C@@H](NC(=O)[C@H](Cc1ccccc1)NC(=O)[C@@H](NC(=O)CNC(=O)[C@H](CCC(=O)O)NC(=O)C(C)(C)NC(=O)[C@@H](N)Cc1ccc(O)cc1)[C@@H](C)O)[C@@H](C)O)[C@@H](C)CC)C(C)C)C(=O)N[C@@H](CC(N)=O)C(=O)N[C@@H](CCCCNC(=O)CCCCCNC(=O)CC[C@H](NC(=O)CC[C@H](NC(=O)CC[C@H](NC(=O)CC[C@H](NC(=O)CC[C@H](NC(=O)CCCCCCCCCCCCCCCCC(=O)O)C(=O)O)C(=O)O)C(=O)O)C(=O)O)C(=O)O)C(=O)NC(C)(C)C(=O)N[C@H](C(=O)N[C@@H](CCCNC(=N)N)C(=O)N[C@@H](CCC(N)=O)C(=O)N[C@@H](CCCNC(=N)N)C(=O)N[C@@H](Cc1ccc(O)cc1)C(N)=O)[C@@H](C)O` [Compound 13, Y-Aib-E-G-T-F-T-S-D-Y-S-I-Aib-L-E-K-Q-A-Q-Aib-A-F-V-R-H-L-I-N-K(1,3)-Aib-T-R-Q-R-Y-NH2.C18DA-gGlu-gGlu-gGlu-gGlu-gGlu-AHX(1,2)], the EC50 in data set [1] came out at 0.4 nM; in data set [2], 0.1 nM. Further, the solubility at 2 h in data set [3] was found to be 4300 µg/mL.

With `CC[C@H](C)[C@H](NC(=O)[C@H](CC(C)C)NC(=O)[C@H](Cc1c[nH]cn1)NC(=O)[C@H](CCCNC(=N)N)NC(=O)[C@@H](NC(=O)[C@H](Cc1ccccc1)NC(=O)[C@H](C)NC(=O)C(C)(C)NC(=O)[C@H](CCC(N)=O)NC(=O)[C@H](C)NC(=O)[C@H](CCC(N)=O)NC(=O)[C@H](CCC(N)=O)NC(=O)[C@H](CCC(=O)O)NC(=O)[C@H](CC(C)C)NC(=O)C(C)(C)NC(=O)[C@@H](NC(=O)[C@H](CO)NC(=O)[C@H](Cc1ccc(O)cc1)NC(=O)[C@H](CC(=O)O)NC(=O)[C@H](CO)NC(=O)[C@@H](NC(=O)[C@H](Cc1ccccc1)NC(=O)[C@@H](NC(=O)CNC(=O)[C@H](CCC(=O)O)NC(=O)C(C)(C)NC(=O)[C@@H](N)Cc1ccc(O)cc1)[C@@H](C)O)[C@@H](C)O)[C@@H](C)CC)C(C)C)C(=O)N[C@@H](CC(N)=O)C(=O)N[C@@H](CCCCNC(=O)[C@@H](N)CCCCNC(=O)CC[C@H](NC(=O)CC[C@H](NC(=O)CC[C@H](NC(=O)CC[C@H](NC(=O)CC[C@H](NC(=O)CC[C@H](NC(=O)CCCCCCCCCCCCCCCCC(=O)O)C(=O)O)C(=O)O)C(=O)O)C(=O)O)C(=O)O)C(=O)O)C(=O)NC(C)(C)C(=O)N[C@H](C(=O)N[C@@H](CCCNC(=N)N)C(=O)N[C@@H](CCC(N)=O)C(=O)N[C@@H](CCCNC(=N)N)C(=O)N[C@@H](Cc1ccc(O)cc1)C(N)=O)[C@@H](C)O` [Compound 23, Y-Aib-E-G-T-F-T-S-D-Y-S-I-Aib-L-E-Q-Q-A-Q-Aib-A-F-V-R-H-L-I-N-K(1,3)-Aib-T-R-Q-R-Y-NH2.C18DA-gGlu-gGlu-gGlu-gGlu-gGlu-gGlu-eLys(1,2)], the figures for the EC50 in data set [1] and in data set [2] were 0.5 nM and 0.2 nM, respectively. Further, the solubility at 2 h in data set [3] turned out to be 9400 µg/mL.

As usually defined, the solubility is how much of the substance goes into solution per volume.

Source of the values: patent publication US20250382344A1, “Soluble GLP1/GIP/NPY2 Receptor Triple Agonists” (Boehringer Ingelheim International GmH, priority 2024, published 2025).
